These results are taken from patent US12018023B2 (NERVIANO MEDICAL SCIENCES S.R.L., priority 2018, dated 2024).

Assay [1] deals with T1, IDH1^R132H homodimer enzyme (Homo sapiens, UniProt O75874, R132H).
T1 construct: purchased not specified
The assay is described as follows: NADPH depletion assay, IDH1 R132H. The assay is classed as biochemical. The procedure, abridged: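 IDH1 R132H enzyme (8 nM as diluted) in Tris-HCl pH 7.6 with 10 mM MgCl2, 0.001% Triton X-100 and 4 mM β-mercaptoethanol is preincubated 15 min at RT with compound. Substrate mix (12 uM NADPH, 3.4 mM α-ketoglutarate) is added for 60 min; remaining NAD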

In another assay the test system is HT-1080 (IDH1^R132C). As to the kind of experiment: Cellular 2-HG production assay, HT-1080. The conditions noted are these: Homo sapiens, HT-1080, 72 h, inhibition of 2HG production, 72 hr incubation, LC-MS/MS; read-out: HT1080 2-HG IC50. The assay is classed as cell-based. In short, it runs like this: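 Cells in E-MEM/10% FCS (G418 500 μg/mL for the transfected U87-MG line) at 500 per well got compound 24 h after seeding and were incubated 72 h at 37 °C. Medium 2-HG was measured by LC-MS/MS with 2-HG-d3 internal standard; IC50 came from sigmoidal fitting versus controls.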

The target in the next assay is T2, IDH1WT enzyme (Homo sapiens, UniProt O75874).
T2 construct: purchased not specified
As to the kind of experiment: Enzymatic assay for IDH1 wild-type (NADPH forming assay). The assay is classed as biochemical. On the procedure: IDH1WT enzymatic activity converting isocitric acid to alpha-ketoglutarate is measured using a NADPH forming assay. In the assay the forming cofactor is measured in continuous with the addition of a catalytic excess of diaphorase and resazurin, to generate a fluorescent signal in proportion to the amount of NADPH forming.
Compounds were preincubated with the enzyme, then the reaction was started by the addition of NADP^+, isocitrate, diaphorase and a corresponding substrate, resazurin. Diaphorase reduces resazurin to the highly fluorescent resorufin with the concomitant oxidation of NADPH to NADP. Specifically, 0.2 uL of test compound, previously serially diluted 1 to 3, 10 experimental points from 1 mM in DMSO, was added to 0.016 nM IDH1WT enzyme in 10 μL of Assay Buffer (150 mM NaCl, 50 mM Tris-HCl pH 7.6, 10 mM MgCl2, 0.001% Triton X-100, 4 mM β-mercaptoethanol); the mixture is incubated for 15 minutes at room temperature. The reaction is started with the addition of 10 μL of Substrate Mix (400 μM NADP^+, 40 μM iso-citrate, 5 ugr/mL Diaphorase and 7 μM resazurin in Assay Buffer), the mixture is incubated at room temperature and the reaction is reading on a ViewLux as platereader at Ex544/Em590 in continuous.

In a further assay the target is T3, IDH2^R172K (Homo sapiens, UniProt P48735, R172K).
T3 construct: purchased not specified
T3 sequence (P48735 40-452 R172K): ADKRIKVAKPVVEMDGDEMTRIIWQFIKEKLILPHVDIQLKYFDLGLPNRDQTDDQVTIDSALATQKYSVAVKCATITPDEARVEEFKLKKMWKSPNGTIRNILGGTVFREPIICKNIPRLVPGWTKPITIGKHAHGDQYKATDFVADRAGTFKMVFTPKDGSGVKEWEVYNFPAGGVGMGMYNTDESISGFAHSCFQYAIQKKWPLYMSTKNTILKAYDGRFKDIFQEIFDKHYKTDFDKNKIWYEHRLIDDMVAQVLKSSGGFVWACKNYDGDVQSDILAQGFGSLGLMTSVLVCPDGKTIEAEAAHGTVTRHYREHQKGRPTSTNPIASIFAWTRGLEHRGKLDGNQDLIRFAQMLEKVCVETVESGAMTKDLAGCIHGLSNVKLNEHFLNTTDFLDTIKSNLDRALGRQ
As to the kind of experiment: NADPH depletion assay, IDH2 R172K. Format: biochemical. In short, it runs like this: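 IDH2 R172K (16 nM) was preincubated 15 min at RT with compound (1:3 series from 1 mM in DMSO) in Tris pH 7.6/NaCl/MgCl2/Triton/β-mercaptoethanol. The reaction ran 60 min at RT with 0.55 mM alpha-ketoglutarate and NADPH (12 μM in the substrate mix). Remaining NADPH was read with diaphorase/resazurin fluorescence at Ex544/Em590.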

A further assay addresses T4, IDH1^R132C (Homo sapiens, UniProt O75874, R132C).
T4 construct: purchased not specified
As to the kind of experiment: NADPH depletion assay, IDH1 R132C. Format: biochemical. In short, it runs like this: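 IDH1 R132C (2 nM) preincubated 15 min at RT with compound in Tris-HCl pH 7.6/MgCl2 buffer, then 60 min RT with NADPH and 0.14 mM alpha-ketoglutarate. Remaining NADPH read by diaphorase/resazurin fluorescence (Ex544/Em590).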

T4 sequence (O75874 whole entry R132C): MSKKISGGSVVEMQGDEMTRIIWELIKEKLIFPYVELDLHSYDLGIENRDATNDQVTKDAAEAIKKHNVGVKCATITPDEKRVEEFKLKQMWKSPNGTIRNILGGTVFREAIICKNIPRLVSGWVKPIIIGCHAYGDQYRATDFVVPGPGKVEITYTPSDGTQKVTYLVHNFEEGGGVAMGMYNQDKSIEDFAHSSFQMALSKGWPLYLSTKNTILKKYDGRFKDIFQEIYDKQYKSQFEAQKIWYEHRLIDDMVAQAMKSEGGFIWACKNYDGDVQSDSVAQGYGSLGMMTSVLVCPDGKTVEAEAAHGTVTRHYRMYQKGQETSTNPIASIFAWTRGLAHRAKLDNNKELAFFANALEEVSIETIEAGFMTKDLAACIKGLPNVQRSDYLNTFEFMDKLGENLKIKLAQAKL
T2 sequence (O75874 whole entry): as the sequence (O75874 whole entry R132C) above, with C132R counted along it
T1 sequence (O75874 whole entry R132H): as the sequence (O75874 whole entry R132C) above, with C132H counted along it

With `C=CC(=O)N1CCN(C(CC)c2ccc(C3(Nc4ncc5ccc(=O)n(C(C)C)c5n4)CC3)cc2)CC1` (stereo not drawn) [cpd 247, 2-[(1-{4-[1-(4-acryloylpiperazin-1-yl)propyl]phenyl}cyclopropyl)amino]-8-(propan-2-yl)pyrido[2,3-d]pyrimidin-7(8H)-one], the half-maximal inhibitory concentration (IC50) was found to be 5 nM in assay [1]; 3 nM in the assay on HT-1080 (IDH1^R132C); 215 nM against IDH1WT enzyme; 35 nM against IDH2^R172K; 4 nM at IDH1^R132C.
For the compound `C=CC(=O)N1CCN([C@@H](CC2CC2)c2ccc(C3(Nc4ncc5ccc(=O)n(C(C)C)c5n4)CC3)cc2)CC1` (single isomer, unassigned) [cpd 246], the IC50 amounted to 2 nM in assay [1]; 2.1 nM with HT-1080 (IDH1^R132C); 231 nM against IDH1WT enzyme; 19 nM on IDH2^R172K; 1 nM against IDH1^R132C.
Regarding `C=CC(=O)N1CCN(C(CC)c2ccc([C@H](C)Nc3ncc4ccc(=O)n(C(C)C)c4n3)cc2)CC1` (stereo partly drawn) [cpd 187, 2-{[(1S)-1-{4-[1-(4-acryloylpiperazin-1-yl)propyl]phenyl}ethyl]amino}-8-(propan-2-yl)pyrido[2,3-d]pyrimidin-7(8H)-one], the concentration for half-maximal inhibition (IC50) is 2 nM in assay [1]; under 1 nM with HT-1080 (IDH1^R132C); 541 nM on IDH1WT enzyme; 18 nM against IDH2^R172K; 2 nM against IDH1^R132C.
For the compound `C=CC(=O)N1CCN([C@H](CC)c2ccc(C3(Nc4ncc5ccc(=O)n(C(C)C)c5n4)CC3)cc2)CC1` (single isomer, unassigned) [cpd 248], the IC50 came to 4 nM in assay [1]; 3.1 nM in the assay with HT-1080 (IDH1^R132C); 216 nM at IDH1WT enzyme; 30 nM at IDH2^R172K; 2 nM against IDH1^R132C.
`C=CC(=O)N1CCN([C@@H](CC)c2ccc(C3(Nc4ncc5ccc(=O)n(C(C)C)c5n4)CC3)cc2)CC1` (single isomer, unassigned) [cpd 249]: the IC50 in assay [1] is 5 nM; with HT-1080 (IDH1^R132C), 2.9 nM; against IDH1WT enzyme, 215 nM; at IDH2^R172K it was 33 nM; at IDH1^R132C, 3 nM.
On the same counts, the results for `C=CC(=O)N1CCN(Cc2ccc([C@H](C)Nc3nc(N)c4ccc(=O)n(C(C)C)c4n3)cc2)CC1` [cpd 206, 2-{[(1S)-1-{4-[(4-acryloylpiperazin-1-yl)methyl]phenyl}ethyl]amino}-4-amino-8-(propan-2-yl)pyrido[2,3-d]pyrimidin-7(8H)-one] are 13 nM, 10.1 nM, 221 nM, 98 nM and 15 nM.
In the same order, the values of `C=CC(=O)N1CCN(Cc2ccc([C@H](C)Nc3ncc4ccc(=O)n(C(C)C)c4n3)cc2)CC1` [cpd 184, 2-{[(1S)-1-{4-[(4-acryloylpiperazin-1-yl)methyl]phenyl}ethyl]amino}-8-(propan-2-yl)pyrido[2,3-d]pyrimidin-7(8H)-one] are 126 nM, 28 nM, 2870 nM, 201 nM and 227 nM.
As for `C=CC(=O)N1CCN(C(CC2CC2)c2ccc(C3(Nc4ncc5ccc(=O)n(C(C)C)c5n4)CC3)cc2)CC1` (stereo not drawn) [cpd 244, 2-[(1-{4-[1-(4-acryloylpiperazin-1-yl)-2-cyclopropylethyl]phenyl}cyclopropyl)amino]-8-(propan-2-yl)pyrido[2,3-d]pyrimidin-7(8H)-one], the 50% inhibitory concentration (IC50) in assay [1] turned out to be 2 nM; in the assay with HT-1080 (IDH1^R132C), 1.6 nM; against IDH1WT enzyme, 220 nM; against IDH2^R172K, 21 nM; on IDH1^R132C, 3 nM.
On the same counts, the results for `C=CC(=O)N1CCN(C(=O)c2ccc([C@H](C)Nc3ncc4ccc(=O)n([C@@H](C)C(C)C)c4n3)cc2F)CC1` [cpd 191, 2-{[(1S)-1-{4-[(4-acryloylpiperazin-1-yl)carbonyl]-3-fluorophenyl}ethyl]amino}-8-[(2S)-3-methylbutan-2-yl]pyrido[2,3-d]pyrimidin-7(8H)-one] are 70 nM, 40 nM, 2990 nM, 902 nM and 116 nM.

The IC50 is the midpoint of a concentration-inhibition curve.
